Data as given in patent publication US10695409B2, “Universal cancer peptides derived from telomerase” (INVECTYS, priority 2012, dated 2020).
pEC50: −log10 of the molar value.

Columns and labels:
[1] = tested on: HLA-DR molecules; assay: HLA-DR binding assay, competitive ELISA, summary over the alleles tested; parameters: species or system human; settings: RA intermediate 100-500, low <100
Experimental: (§1) Synthetic peptides (>80% purity) were purchased from Activotec (Cambridge, United Kingdom). The binding capacity to HLA-DR molecules was assessed by competitive ELISA as previously reported (Wang et al).
(§2) To predict the existence of CD4 epitopes within the amino acid sequence of TERT capable of binding to multiple HLA-DR molecules, the inventors have combined results from three algorithms Syfpeithi, NetMHCpan-2.1 and NetMHC2.2. They have selected four 15-mers peptide sequences referred as UCP1 to UCP4 that scored high in the probability scale for their binding capacity to the commonly found human HLA-DR alleles (Table 1). […] Data are expressed as relative activity RA (ratio of the IC50 of UCPs to the IC50 of the reference peptide) and are the means of three experiments. Good binders have a […] and weak binder are […].
Thus, according to phenotypic frequencies of the 10 prevalent HLA-DR antigens, these peptides could cover more than 90% of population (Wang et al).

[2] = tested on: UCP-specific CD4 T cell clones; assay: TNF secretion of UCP-specific CD4 T cell clones from cancer patient, flow cytometry; format: cell-based, human; settings: CD4 T cell clones with cognate peptide, 5 h, Brefeldin A; read-out: peptide concentration at half-maximal TNF secretion
Experimental: T cell clones were obtained by limiting dilution of cancer patients T cell lines stimulated one time with the pool of UCPs. (2A and 2C) Percentage of TNF-producing T cells and of T cell clones isolated from patients GE001 in response to 10 μM of the relevant UCP; 10^5 T cells were incubated for 5 h in the presence of Brefeldin A, stained with CD4 antibody, fixed, and stained with anti-TNF antibody in a permeabilization buffer; 10^4 T cells were then analyzed in flow cytometry. (2B and 2D) Reactivity of the CD4 T cell clones in response to relevant UCP. CD4 T cell clones were culture with a range of the indicated peptide concentration. TNF secretion was assessed 5 h in the presence of Brefeldin A, by flow cytometry. (2E) Detection of cytokines produced by GE001.36 T cell clone in response to 10 μM of UCP4 using human ten-plex cytokines assay. […]
For intracytoplasmic cytokine staining, after a 5-h stimulation period with or without 10 μM peptide, T cells were labeled with anti-CD4 (BD Bioscience, USA) and anti-TNF-α (ebioscience, USA) using Cytofix/Cytoperm KIT (BD Bioscience). […] Samples were acquired on a FACS Canto II (BD Biosciences) and analyzed with the DIVA software. […]

[3] = tested on: blood lymphocytes from NSCLC patients and healthy volunteers; assay: Spontaneous UCP-specific T cell responses, IFN-γ ELISPOT after one week stimulation; format: cell-based, human; settings: frequency of T cell responses
[4] = tested on: CD4 T cells; assay: Ex vivo IFN-γ ELISPOT of CD8 depleted spleen lymphocytes from TERT DNA-immunized mice; format: in vivo, A2/DR1 mice; settings: mice immunized with DNA encoding TERT
Experimental: (5A-5B), A2/DR1 mice (n=8) were immunized twice with a DNA encoding TERT.
(5B), CD8 depleted spleen lymphocytes from DNA-immunized mice were assayed in ex vivo IFN-γ ELISPOT. Columns mean of triplicate from 4 mice; bars, SD.
To study the processing of UCP, A2/DR1 mice were immunized with a pTrip-TERT DNA (100 μg) at days 0 and 14 as previously reported (Adotevi et al, 2010). In some experiment CD4 T cells were depleted with anti-CD4 mAb treatment (clone GK1.5) prior DNA immunization. For UCP immunization, mice were injected with 100 μg of each UCP emulsified in incomplete Freund adjuvant (IFA, Sigma-Aldrich, France). In some experiments, 50 μg of pY988 peptide was co-injected with 100 μg of each UCP in IFA. All peptide vaccinations were done subcutaneously (s.c) at the right abdominal flank. Eight to ten week-old mice were bred and maintained in our animal facilities. All experiments were done according to the good laboratory practices defined by animal experimentation rules in France.
Ex vivo pentamer staining was performed as previously described (Adotevi et al, 2010; Adotevi et al, 2006). Cells were stained with PE-conjugated pY988 and pY572 HLA-A2.1 pentamer (ProImmune, UK). After cell staining, samples were analyzed by flow cytometry on a FACS Canto II (BD Biosciences, France) and using Diva software. […]
The inventors and others have previously reported that the use of humanized HLA transgenic mice models to screen for human tumor antigens represents a potent alternative to optimize “reverse immunology” approaches for epitope identification (Adotevi et al, 2006; Osen et al, 2010). […] To assess whether UCPs can be endogenously processed from the TERT protein, the inventors performed immunizations with a plasmid DNA encoding the full length TERT sequence and the UCP-specific CD4 splenocytes were monitored by a five-day 3H-thymidine incorporation assay. […] To this end, freshly isolated CD4 T cells from UCP-vaccinated mice were cultured in the presence of syngenic iDC pulsed or not with UCP and cytokines production was measured.

[5] = tested on: CD4 T cells; assay: Avidity of UCP-specific CD4 T cells from UCP-immunized mice, IFN-γ ELISPOT; format: in vivo, A2/DR1 mice; settings: vaccinated once, ~1 μg peptide
Experimental: (5C-5D), Mice (3-4/group) were immunized once with each UCP in IFA.
(5D), Isolated CD4 T cells were cultured ex vivo with increasing concentrations of peptide as indicated. IFN-γ production was measured by ELISPOT. Curves, mean responses from 3 mice, bars, SD.
(5E), Mice were vaccinated once with low dose of UCP as indicated. UCP-specific T cell responses were evaluated in spleen by ex vivo IFN-γ ELISPOT.
(§3) To study the processing of UCP, A2/DR1 mice were immunized with a pTrip-TERT DNA (100 μg) at days 0 and 14 as previously reported (Adotevi et al, 2010). In some experiment CD4 T cells were depleted with anti-CD4 mAb treatment (clone GK1.5) prior DNA immunization. For UCP immunization, mice were injected with 100 μg of each UCP emulsified in incomplete Freund adjuvant (IFA, Sigma-Aldrich, France). In some experiments, 50 μg of pY988 peptide was co-injected with 100 μg of each UCP in IFA. […]
(§4) Ex vivo pentamer staining was performed as previously described (Adotevi et al, 2010; Adotevi et al, 2006). […] After cell staining, samples were analyzed by flow cytometry on a FACS Canto II (BD Biosciences, France) and using Diva software. […]
Next, to assess the avidity of UCP-specific CD4 T cell, freshly purified CD4 T cells from UCP-immunized mice were cultured in the presence of increasing concentrations of peptide and the number of specific IFN-γ producing CD4 T cells was measured by ELISPOT. […]

[6] = tested on: immature bone marrow-derived DCs; assay: In vitro DC-CD4 T cell co-culture; format: cell-based, A2/DR1 mice; settings: CD4 T cells from UCP2/IFA versus IFA injected mice
Experimental: 8B, Schema of the in vitro DC-CD4 T cell co-culture.
8C, IFN-γ and GM-CSF production measured by ELISA in the supernatant.
8D, Expression of CD86 and HLA-DR on CD11c+ DC.
8E, Interleukin 12 production measured in supernatant by ELISA.
Spleen or lymph nodes CD11c+ DCs from peptide-immunized mice were directly analyzed for co-stimulatory receptor expression. In some experiments, immature bone marrow-derived DCs (iDC) from A2/DR1 mice were cultured 15-h with CD4 T cells from mice immunized with UCP or IFA alone and then stained for cell surface expression of co-stimulatory receptors and cytokines production.
The induction of dendritic cell activation represents one major helper mechanism used by CD4+ Th1 cells to sustain antigen presentation and provide costimulatory signals to the CTLs. This is referred as the “ménage à trois” model (Ridge et al, 1998). To test this mechanism, the inventors have analyzed the expression of co-stimulating receptors on DCs from mice immunized with the mix of pY988+/−UCP2. […] In a second set of experiments, isolated CD4 T cells from UCP2/IFA or IFA injected mice were co-cultured with syngenic iDCs as shown in FIG. 8B. As expected, UCP2-specific CD4 T cells produced significant amounts of Th1 cytokines such as IFN-γ and GM-CSF (FIG. 8C).

[7] = tested on: HLA-DR DR3; assay: HLA-DR binding assay, competitive ELISA; parameters: species or system human; settings: means of three experiments
Experimental: as §1, §2

[8] = tested on: HLA-DR DR11; assay: HLA-DR binding assay, competitive ELISA; parameters: species or system human; settings: means of three experiments
[9] = tested on: pY988-specific CD8 T cells; assay: Co-immunization pY988 plus UCP: pY988-specific CTL response by pentamer staining and IFN-γ ELISPOT; format: in vivo, A2/DR1 mice; settings: pY988 plus UCP in IFA versus pY988/IFA alone, day 10, spleen
From the text: Mice (3/group) were immunized either with pY988 plus each UCP in IFA or with pY988/IFA alone and the immune responses were monitored ten days later in the spleen. 6A, freshly isolated CD8 T cells were stained with TERT pY988/A2+ pentamer. Representative flow cytometry dot plots (upper panel) and mean percentages of pY988/A2+ CD8 T cells (lower panel) are shown.
6B, Ex vivo detection of anti-pY988 CD8 T cells by IFN-γ ELISPOT.
as §3, §4
CD4 T cell helper functions are thought to be important for the generation of potent and sustained CTL responses (Shedlock et al, 2003). […] The pY988-specific CTL response was measured ex vivo by pentamer staining and ELISPOT assays. […]

[10] = tested on: HLA-DR DR13; assay: HLA-DR binding assay, competitive ELISA; parameters: species or system human; settings: means of three experiments
Experimental: as §1, §2

[11] = target: HLA-DR DRB4 (Homo sapiens, UniProt P01903+P13762); assay: HLA-DR binding assay, competitive ELISA; settings: means of three experiments
Experimental: as §1, §2

Sequence | capacity to bind HLA-DR molecules [1] | pEC50 [2] | CD4 T cell responses to individual UCPs [3] | specific CD4 T cell responses detected [4] | IFN-γ+ CD4 T cells after low dose vaccination [5] | DC activation and interleukin-12 production in presence of UCP2-specific CD4 T cells [6] | Relative affinity RA (ratio of the IC50 of UCPs to the IC50 of the reference peptide) [7] | Relative affinity RA (ratio of the IC50 of UCPs to the IC50 of the reference peptide) [8] | frequency of pY988/A2 pentamer+ CD8 T cells [9] | Relative affinity RA (ratio of the IC50 of UCPs to the IC50 of the reference peptide) [10] | Relative affinity RA (ratio of the IC50 of UCPs to the IC50 of the reference peptide) [11]
KSVWSKLQSIGIRQH [UCP2, universal cancer peptide derived from TERT, 15-mer] | able to bind every HLA-DR molecules tested | ~5.40 | more immunogenic | in all immunized mice | stimulated potent IFN-γ+ CD4 T cells | induced potent DCs activation |  |  |  |  | 
GTAFVQMPAHGLFPW [UCP3] |  |  |  | in all immunized mice | stimulated potent IFN-γ+ CD4 T cells |  |  |  |  |  | 
PAAFRALVAQCLVCV (listed as Homo sapiens) [UCP1, universal cancer peptide derived from TERT, 15-mer] | able to bind every HLA-DR molecules tested |  |  |  |  |  | 0.4 | 25 | little impact |  | 
SLCYSILKAKNAGMS [UCP4, universal cancer peptide derived from TERT, 15-mer] |  | > 7.00 | more immunogenic | in all immunized mice |  |  | >500 | 0,3 |  | >500 | >500
